Measurements reported in PMC6522912, “Evaluation of the published kinase inhibitor set to identify multiple inhibitors of bacterial ATP-dependent mur ligases” (Journal of Enzyme Inhibition and Medicinal Chemistry, 2019).

Tests used:
[1] = target: E. coli MurC (Escherichia coli, UniProt P17952); assay: Malachite green inhibition assay, MurC; assay type: biochemical
[2] = target: E. coli MurD (Escherichia coli, UniProt P14900); assay: biochemical
Summary of the method: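 Orthophosphate released by E. coli MurD quantified by malachite green (Biomol green) absorbance at 650 nm after 15 min at 37 °C. Residual activity relative to DMSO-only controls.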

[3] = Solubility observations in assay mixtures and NMR buffer; assay type: physicochemical; details: NMR buffer, MurD:ligand molar ratio 1:8, 0.07 mM MurD
[4] = target: MurD (Escherichia coli, UniProt P14900); assay: 1H/13C HSQC NMR study of ligand binding; details: chemical shift perturbations, without and with 2 mM AMP-PCP
Description: The nuclear magnetic resonance (NMR) spectra were recorded at 25 °C on a spectrometer (DirectDrive 800 MHz; Varian, Slovenian NMR centre at National Institute of Chemistry) equipped with a cryoprobe. The pulse sequences provided in the Varian BioPack library of pulse programmes was used. The samples were prepared in 90% H2O/10% DMSO-d6 buffer containing 20 mM HEPES, 7 mM (NH4)2SO4, 3.5 mM MgCl2, and 2 mM dithiothreitol, pH 7.2. Here, 0.07 mM MurD that was selectively labelled with ^13 C at the methyl groups of Ile (δ1 only), Val and Leu was used. The protein was titrated using compound 1 in MurD:ligand molar ratios of 0.5, 1, 2, 4 and 8, without and with 2 mM β,γ-methyleneadenosine 5'-triphosphate (AMP–PCP). […] The final concentration of DMSO-d6 was 12% (v/v). The variation of DMSO from 10 to 12% (v/v) affects the chemical shift perturbations by <0.02 ppm[31].
The heteronuclear single quantum coherence (HSQC) spectra for ^1H/^13C were acquired with 1024 data points in t2, 32 scans, 64 complex points in t1, and relaxation delay of 1 s. […] The spectra were processed and analysed with the Felix 2007 software package (Felix NMR Inc., Laboratory of Biomolecular Structure at National Institute of Chemistry). […] The combined ^1H/^13C chemical shift perturbations (Δδ) were calculated from the ^1H and ^13C chemical shift perturbations using Equation (1)[32]: (1) Δδ=((Δδ^1H)^2+(0.252×Δδ^13C)^2)^1/2. […]

[5] = tested on: human kinases; details: over 200 kinase activity assays and 68 DSF assays; cited from earlier work
[6] = residual activity at 100 µM compound, Table 1

E. coli MurD, sequence (P14900 whole entry): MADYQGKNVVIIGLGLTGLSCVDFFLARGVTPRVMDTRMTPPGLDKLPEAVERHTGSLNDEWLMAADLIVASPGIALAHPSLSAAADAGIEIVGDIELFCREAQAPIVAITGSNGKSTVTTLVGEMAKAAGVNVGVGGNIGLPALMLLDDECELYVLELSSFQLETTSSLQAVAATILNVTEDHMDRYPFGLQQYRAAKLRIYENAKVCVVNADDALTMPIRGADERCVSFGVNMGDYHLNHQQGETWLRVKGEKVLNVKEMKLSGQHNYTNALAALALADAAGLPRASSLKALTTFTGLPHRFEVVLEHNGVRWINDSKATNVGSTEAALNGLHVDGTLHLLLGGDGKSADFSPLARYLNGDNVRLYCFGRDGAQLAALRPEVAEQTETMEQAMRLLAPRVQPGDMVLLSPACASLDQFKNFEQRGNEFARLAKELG
E. coli MurC, sequence (P17952 whole entry): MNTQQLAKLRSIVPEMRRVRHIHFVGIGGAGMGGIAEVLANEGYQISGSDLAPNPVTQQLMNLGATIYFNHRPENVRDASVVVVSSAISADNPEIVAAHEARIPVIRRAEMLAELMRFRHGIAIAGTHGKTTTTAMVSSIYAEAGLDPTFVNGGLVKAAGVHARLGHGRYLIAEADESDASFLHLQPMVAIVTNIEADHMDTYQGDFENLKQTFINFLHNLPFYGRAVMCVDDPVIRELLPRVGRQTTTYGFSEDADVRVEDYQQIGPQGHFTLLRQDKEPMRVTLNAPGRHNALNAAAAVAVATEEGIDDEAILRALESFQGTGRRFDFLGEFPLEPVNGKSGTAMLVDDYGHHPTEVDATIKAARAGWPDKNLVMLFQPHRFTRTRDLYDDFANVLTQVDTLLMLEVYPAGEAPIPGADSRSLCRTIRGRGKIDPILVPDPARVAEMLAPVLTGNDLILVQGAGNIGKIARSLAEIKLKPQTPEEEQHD
MurD, sequence (P14900 whole entry): as the sequence (P14900 whole entry) above

Cc1cc(-c2ccco2)cc(C)c1/C=C/c1cncc(-c2nn[nH]n2)c1 [Compound 1]
remaining activity at 100 µM ([1]; 0.25 h, Table S1, PKIS screening, read-out: RA [%] at 100 µM MurC): 70% | IC50 ([1]; Table 1, read-out: MurC IC50): 368 µM | RA (%) MurC ([1]; Table S3, aza stilbene compounds): 70% | MurC RA [%] [1, 6]: 70% | remaining activity at 100 µM ([2]; 0.25 h, Table S1, PKIS screening, read-out: RA [%] at 100 µM MurD): 45% | IC50 ([2]; Table 1, read-out: MurD IC50): 104 µM | LE (MurD) ([2]; ligand efficiency, LE = (1.37 × pIC50)/HAC): 0.21 | MurD RA [%] [2, 6]: 45% | solubility [3]: not completely dissolved | binding site on MurD [4]: binds to the D-Glu binding site | activity at human kinases [5]: no appreciable activity
